The values that follow are results of earlier work, collected in the PKSmart pharmacokinetics tables (Seal et al. 2025).

Where a SMILES comes first, the peptide text is derived from it. Bridges are numbered along the chain shown (N, C = ends).

The nature of data set [1]: not given per row; by the article one of three: Lombardo et al. 2013, J Clin Pharmacol 53:178, doi 10.1177/0091270012440282; 'New Drugs at FDA', novel drug approvals for 2021 and 2022 (the article's reference 43); Yap, Li, Chen 2006, J Mol Graph Model 24:383, doi 10.1016. Conditions: human; for clearance / Vd / half-life: in vivo; for fraction unbound: plasma.
A short description of data set [2]: Lombardo et al. 2013, J Clin Pharmacol 53:178, doi 10.1177/0091270012440282. Conditions: for Vd / clearance: in vivo, iv; for fraction unbound: plasma.
Data set [3] can be described thus: Lombardo, Berellini, Obach 2018, Drug Metab Dispos 46:1466, doi 10.1124/dmd.118.082966. The settings on record: human; for MRT / Vd / half-life / clearance: in vivo, iv.

For orientation: clearance means the rate of elimination divided by the concentration. Consider `C=CC[C@]1([C@H](C)C#CCC)C(=O)NC(=O)N(C)C1=O`, for which the clearance in data set [1] was 13.3 mL/min/kg.
With `CC(=O)O[C@H](CC(=O)[O-])C[N+](C)(C)C`, the clearance in data set [1] was 1.45 mL/min/kg.
The term fraction unbound denotes the share of the substance not bound to proteins or other matrix. In the case of `CSc1ccc(OCc2ncc([N+](=O)[O-])n2C)cc1`, the fraction unbound in data set [1] is 0.02.
For the compound `O[C@@](CCN1CCCC1)(c1ccccc1)C1CCCCC1`, the clearance in data set [1] was 0.97 mL/min/kg.
On to `NC(=O)c1cc[n+](COC[n+]2ccccc2C=NO)cc1`, for which, in data set [1], the clearance is 3.2 mL/min/kg.
Regarding `O=c1[nH]c(=O)n([C@@H]2CCCO2)cc1F`, the clearance in data set [1] is 0.98 mL/min/kg.
Turning to `NC(Cc1cc(I)c(Oc2ccc(O)c(I)c2)c(I)c1)C(=O)O` (stereo not drawn), the clearance in data set [1] was 0.25 mL/min/kg.
Turning to `O=C(OCCN1CCCCCC1)C(c1ccsc1)C1CCCCC1` (stereo not drawn), the clearance in data set [1] is 18.3 mL/min/kg.
With `C[C@]1(Cn2ccnn2)C(C(=O)O)N2C(=O)C[C@@H]2S1(=O)=O` (stereo partly drawn), in data set [1], the clearance is 2.91 mL/min/kg.
Take `COc1ccc2c3c1OC1C(=O)CC[C@@H]4[C@H](C2)N(C)CC[C@@]314` (stereo partly drawn): the clearance in data set [1] is 8.82 mL/min/kg.
In general, Vd refers to the apparent volume that relates the amount in the body to the concentration in plasma or blood. One may read the half-life as the time needed for the level to fall by half in the phase considered. On to `NCCCCC(NC(=O)C1CCCN1C(=O)C1CSSCC(NC(=O)CNC(=O)CNC(=O)CN)C(=O)NC(Cc2ccc(O)cc2)C(=O)NC(Cc2ccccc2)C(=O)NC(CCC(N)=O)C(=O)NC(CC(N)=O)C(=O)N1)C(=O)NCC(N)=O` (stereo not drawn) (H-GGGCYFQNCPKG-NH2; disulfide 4-9; configuration not given here), for which, in data set [1], the distribution volume (Vd) was 0.11 L/kg, the clearance was 7.61 mL/min/kg and the half-life was 0.9 h.
As to `CC(C)(Oc1ccc(CCNC(=O)c2ccc(Cl)cc2)cc1)C(=O)O`, in data set [1], the clearance is 1.67 mL/min/kg.
With `C[C@@H](c1cc2ccccc2s1)N(O)C(N)=O`, in data set [1], the clearance was 7.14 mL/min/kg.
As to `CCCN(CC)C(CC)C(=O)Nc1c(C)cccc1C` (stereo not drawn), the clearance in data set [1] is 15.9 mL/min/kg.
Consider `CC[C@]1(C)CC(=O)NC1=O`, for which the clearance in data set [1] is 0.19 mL/min/kg.
For `CNCc1cc(-c2ccccc2F)n(S(=O)(=O)c2cccnc2)c1`, in data set [1], the Vd was 13 L/kg, the clearance was 22.6 mL/min/kg, the half-life is 6.8 h and the unbound share (fraction unbound) was 0.14.
Regarding `O=c1[nH]c2ccccc2n1C1CCN(CCCC(c2ccc(F)cc2)c2ccc(F)cc2)CC1`, in data set [1], the clearance was 4.1 mL/min/kg.
Take `Nc1nc(=O)c2c([nH]1)N[C@@H]1O[C@@H]3COP(=O)(O)O[C@@H]3C(O)(O)[C@@H]1N2`: in data set [1], the Vd is 0.3 L/kg, the clearance is 3.02 mL/min/kg and the half-life was 1.45 h.
Consider `Cc1cc2c(s1)Nc1ccccc1N=C2N1CCN(C)CC1`, for which, in data set [1], the clearance is 5.81 mL/min/kg, the half-life was 43.5 h and the fraction unbound is 0.07.
As to `COc1ccc2c3c1O[C@@H]1[C@@H](O)C=C[C@@H]4[C@H](C2)N(C)CC[C@]341`, in data set [1], the clearance was 11 mL/min/kg.
In the case of `COCC1=C(C(=O)O)N2C(=O)C(=NC(=O)C(NOC)c3csc(N)n3)[C@H]2SC1` (stereo partly drawn), the clearance in data set [1] is 2.38 mL/min/kg.
Turning to `O=C(O)C1=C(CSc2nnnn2CS(=O)(=O)O)CS[C@H]2C(NC(=O)C(O)c3ccccc3)C(=O)N12` (stereo partly drawn), the clearance in data set [1] is 0.33 mL/min/kg.
Take `C[C@H](O)C1C(=O)N2C(C(=O)[O-])=C(SC3Cn4cnc[n+]4C3)[C@@H](C)[C@@H]12` (stereo partly drawn): the clearance in data set [1] was 2.77 mL/min/kg.
Regarding `Cc1ccc2nc(N)[nH]c(=O)c2c1Sc1ccncc1`, in data set [1], the clearance is 2.36 mL/min/kg.
Turning to `O[P+](O)(O)C(Cl)(Cl)[P+](O)(O)O`, in data set [1], the clearance is 2.2 mL/min/kg.
As for `Oc1ccc2c(c1)C13CCCC[C@@]1(O)[C@H](C2)N(CC1CCC1)CC3`, in data set [1], the clearance is 40 mL/min/kg.
Consider `NC(C(=O)NC1C(=O)N2C(C(=O)O)=C(Cl)CS[C@H]12)c1ccccc1` (stereo partly drawn), for which, in data set [1], the clearance is 6.1 mL/min/kg.
For `O=C(O)CCCCCCNC1c2ccccc2CCc2ccccc21`, in data set [1], the clearance was 29.6 mL/min/kg.
In the case of `COc1cc(Cc2cnc(N)nc2N)cc(OC)c1Br`, the clearance in data set [1] is 0.6 mL/min/kg.
Take `COc1ccccc1OCCNC[C@@H](O)COc1cccc2[nH]c3ccccc3c12`: the clearance in data set [1] is 8.7 mL/min/kg.
Regarding `CN[C@H]1CC[C@H](c2ccc(Cl)c(Cl)c2)c2ccccc21`, the clearance in data set [1] was 38 mL/min/kg.
Turning to `C=C/C=C/C[C@@H](C)[C@@H](O)C1C(=O)NC(CC)C(=O)N(C)CC(=O)N(C)C(CC(C)C)C(=O)NC(C(C)C)C(=O)N(C)C(CC(C)C)C(=O)NC(C)C(=O)NC(C)C(=O)N(C)C(CC(C)C)C(=O)N(C)C(CC(C)C)C(=O)N(C)C(C(C)C)C(=O)N1C` (stereo partly drawn), in data set [1], the Vd is 35.9 L/kg, the clearance is 17.7 mL/min/kg, the half-life was 30 h and the fraction unbound was 0.03.
Consider `CCN(CC)CCC[C@@H](C)Nc1ccnc2cc(Cl)ccc12`, for which, in data set [1], the clearance is 7.09 mL/min/kg.
As to `CO[C@]1(NC(=O)CSCC#N)C(=O)N2C(C(=O)O)=C(CSc3nnnn3C)CS[C@H]21`, the clearance in data set [1] was 1.84 mL/min/kg.
Turning to `C[C@H]1CN(c2cc3c(cc2F)c(=O)c(C(=O)O)cn3-c2ccc(F)cc2F)CCN1`, the clearance in data set [1] was 3.19 mL/min/kg.
With `CCN1CCCC1CNC(=O)c1c(OC)ccc(Br)c1OC` (stereo not drawn), the clearance in data set [1] is 1.7 mL/min/kg.
Turning to `CN(C)CCC(c1ccccc1)c1ccccn1` (stereo not drawn), the clearance in data set [1] is 2.14 mL/min/kg.
On to `COCc1c(-c2ccc(F)cc2)c(=CC[C@H](O)C[C@H](O)CC(=O)O)c(C(C)C)nc1=C(C)C`, for which the clearance in data set [1] was 2.98 mL/min/kg.
For the compound `CN1CCC[C@@H](n2nc(Cc3ccc(Cl)cc3)c3ccccc3c2=O)CC1`, in data set [1], the clearance is 8.33 mL/min/kg.
On to `O[C@@H](c1cc(C(F)(F)F)nc2c(C(F)(F)F)cccc12)[C@@H]1CCCCN1`, for which, in data set [1], the clearance was 0.41 mL/min/kg.
Take `O=C(O)C1C[C@H](C2CCCCC2)CN1C(=O)C[P@](=O)(O)CCCCc1ccccc1` (stereo partly drawn): the clearance in data set [1] was 0.46 mL/min/kg.
The MRT is a mean duration of stay, worked out from the concentration-time curve. On to `CNCCCN1c2ccccc2CCc2ccccc21`, for which the Vd in data set [2] (rat) is 19.8 L/kg. In data set [3], the MRT is 23 h, the Vd is 15 L/kg and the half-life is 22 h.
For the compound `CC(C)Oc1ccccc1N1CCN(Cc2cccc(C(=O)N3CCCCC3)c2)CC1`, in data set [2] (rat), the Vd was 1.73 L/kg, the clearance was 39.2 mL/min/kg and the fraction unbound is 0.03. For the same compound, in data set [3], the MRT is 4.2 h, the Vd was 1.54 L/kg, the clearance was 6.17 mL/min/kg and the half-life was 4.6 h.
Turning to `O=C(O)Cc1ccccc1Nc1c(Cl)cccc1Cl`, in data set [2] (dog), the volume of distribution (Vd) is 0.19 L/kg and the clearance was 1.4 mL/min/kg. In addition, in data set [2] (monkey), the Vd is 0.32 L/kg and the clearance was 8.5 mL/min/kg. In data set [2] (rat), the volume of distribution (Vd) was 1.39 L/kg and the clearance is 16.8 mL/min/kg. Moreover, in data set [3], the MRT is 1 h, the Vd is 0.22 L/kg, the clearance was 3.5 mL/min/kg and the half-life was 1.4 h.
On to `Nc1ccn([C@@H]2O[C@H](CO)[C@@H](O)[C@@H]2O)c(=O)n1`, for which, in data set [2] (dog), the distribution volume (Vd) is 0.86 L/kg and the clearance is 11.3 mL/min/kg. In data set [3], the mean residence time (MRT) is 0.28 h, the Vd was 0.67 L/kg, the clearance is 41.7 mL/min/kg and the half-life is 0.17 h.
Turning to `COCc1c(-c2ccc(F)cc2)c(=CC[C@@H](O)C[C@@H](O)CC(=O)O)c(C(C)C)nc1=C(C)C`, in data set [2] (rat), the Vd is 3 L/kg and the clearance was 27 mL/min/kg. In data set [3], the MRT is 1.8 h, the Vd is 0.33 L/kg, the clearance was 2.9 mL/min/kg and the half-life is 1.8 h.
Consider `C#CCCCC(=O)c1cc(C(C)(C)C)c(O)c(C(C)(C)C)c1`, for which, in data set [2] (dog), the Vd is 24.8 L/kg and the clearance was 30.9 mL/min/kg. Also, in data set [2] (monkey), the Vd was 10.4 L/kg and the clearance is 14.9 mL/min/kg. Further, in data set [2] (rat), the Vd is 7.9 L/kg and the clearance is 41.4 mL/min/kg. Besides, in data set [3], the mean residence time (MRT) was 22.3 h, the Vd was 12 L/kg, the clearance is 8.9 mL/min/kg and the half-life is 50.7 h.
In the case of `Nc1[nH]c(=O)ncc1F`, in data set [2] (dog), the Vd is 0.64 L/kg and the clearance was 2.4 mL/min/kg. In addition, in data set [3], the MRT was 5.7 h, the distribution volume (Vd) was 0.68 L/kg, the clearance was 2 mL/min/kg and the half-life is 4.2 h.
Consider `CCN1CCC[C@H]1CNC(=O)c1c(OC)ccc(Br)c1OC`, for which, in data set [2] (dog), the Vd is 1.6 L/kg, the clearance was 4.9 mL/min/kg and the unbound share (fraction unbound) was 0.12. In data set [2] (rat), the Vd is 4.5 L/kg, the clearance is 170 mL/min/kg and the fraction unbound was 0.74. Besides, in data set [3], the MRT is 6.4 h, the Vd is 0.65 L/kg, the clearance is 1.7 mL/min/kg and the half-life is 5.5 h.
Take `COCCCOc1ccnc(C[S+](O)c2nc3ccccc3[n-]2)c1C` (stereo not drawn): in data set [2] (dog), the volume of distribution (Vd) is 2.62 L/kg, the clearance was 86 mL/min/kg and the fraction unbound is 0.0864. Further, in data set [2] (rat), the Vd is 1.04 L/kg, the clearance is 82.4 mL/min/kg and the fraction unbound is 0.073. In addition, in data set [3], the MRT is 0.92 h, the Vd is 0.22 L/kg, the clearance was 4 mL/min/kg and the half-life is 1 h.
On to `COCCOC(=O)C1=C(C)NC(C)=C(C(=O)OC(C)C)C1c1cccc([N+](=O)[O-])c1` (stereo not drawn), for which, in data set [2] (dog), the Vd is 3 L/kg, the clearance is 18 mL/min/kg and the fraction unbound was 0.03. In data set [2] (monkey), the volume of distribution (Vd) is 3.62 L/kg, the clearance was 33 mL/min/kg and the fraction unbound is 0.095. Besides, in data set [2] (rat), the Vd is 5.5 L/kg, the clearance was 19.6 mL/min/kg and the free fraction (fraction unbound) is 0.03. In addition, in data set [3], the mean residence time MRT was 1.2 h, the Vd is 1.1 L/kg and the half-life is 1.3 h.
For the compound `CC1=NC(=O)[C@](CCN(C(C)C)C(C)C)(c2ccccc2)[C@H]2CCCCN12`, in data set [2] (dog), the Vd was 1.3 L/kg, the clearance is 12 mL/min/kg and the fraction unbound was 0.618. Further, in data set [2] (monkey), the Vd is 1.6 L/kg, the clearance was 20 mL/min/kg and the fraction unbound was 0.656. Moreover, in data set [2] (rat), the Vd was 4.2 L/kg, the clearance was 48 mL/min/kg and the unbound share (fraction unbound) is 0.63. For the same compound, in data set [3], the MRT was 1.58 h, the Vd was 0.58 L/kg, the clearance was 6.79 mL/min/kg and the half-life was 1.89 h. In addition, the fraction unbound in data set [3] (plasma) is 0.7.
